Data published in patent publication EP2711367A1, “New spiroepoxide tetrahydrobenzo-triazoles and -imidazoles and their use as MetAP-II inhibitors” (Deutsches Krebsforschungszentrum, priority 2012, dated 2014).
Where two headings read alike, the source gives them in different places.

What was measured:
E. coli MetAP = E. coli MetAP (Escherichia coli, UniProt P0AE18); assay: MetAP inhibitory activity, Met-Gly-Met-Met substrate, HPLC detection of Gly-Met-Met; type: biochemical; details: for inhibition at 25 µM: read-out: E. Coli % inhibition; for E. Coli % inhibition: single concentration: inhibitor 25 µM, enzyme 50 nM, 20 minutes substrate incubation at 37 °C
E. coli MetAP, sequence (P0AE18 whole entry): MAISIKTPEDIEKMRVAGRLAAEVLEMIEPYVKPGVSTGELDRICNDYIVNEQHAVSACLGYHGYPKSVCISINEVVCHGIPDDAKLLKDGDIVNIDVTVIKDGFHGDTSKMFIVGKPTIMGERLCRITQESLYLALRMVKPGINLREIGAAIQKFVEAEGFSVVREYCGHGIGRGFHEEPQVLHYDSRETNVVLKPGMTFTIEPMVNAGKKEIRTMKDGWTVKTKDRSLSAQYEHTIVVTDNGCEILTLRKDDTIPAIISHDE
Method: (§1) The below protocol describes the measurement of the inhibitory activity of the compounds of the present invention by using E. coli MetAP, hsMetAP-I, and hsMetAP-II.
(§2) Inhibition activity of compounds was studied using the tetrapeptide substrate Met-Gly-Met-Met (Bachem) followed by HPLC analysis of the product Gly-Met-Met. The assay was performed in 96 well plates (Greiner) at a total reaction volume of 100 µl. […] A positive control with DMSO solution instead of inhibitor at the corresponding concentration was prepared. Then the substrate Met-Gly-Met-Met was added to a final concentration of 400 µM. After an incubation period of 15 minutes (HsMetAP-I), 20 minutes (EcMetAP) or 60 minutes (HsMetAP-II) at 37 °C, the enzyme reaction was stopped by adding 10 µl 4 % trifluoroacetic acid. The plate was centrifuged at 1000 x g for 10 minutes.
(§3) Detection of the product Gly-Met-Met was performed by HPLC (Jasco), and typically using the following, or equivalent conditions: C18 column (Dr. Maisch, ReproSil-Pur® 120 ODS-3, 3 µm, 50 x 2 mm). 80 µl of sample were applied on the column and eluted with mobile phase A (water and 0.1 % trifluoroacetic acid, filtered, degassed) and B (acetonitrile and 0.1 % trifluoroacetic acid, degassed) over 8 minutes.
(§4) Percentage inhibition was calculated as the relation of Gly-Met-Met amount resulting in inhibited and uninhibited enzyme reaction (positive control). […] The values were determined in relation to positive controls with equal DMSO contents. The inhibition values for the varying concentrations of inhibitor were then fitted to a logarithmic dose-response curve and the IC50 values were calculated from the equation thus obtained.

hsMetAP-I = hsMetAP-I (Homo sapiens, UniProt P53582); assay: as above; type: biochemical, hs; details: for inhibition at 25 µM: read-out: hsMetAP-I % inhibition
Method: as §1, §2, §3, §4

hsMetAP-II = hsMetAP-II (Homo sapiens, UniProt P50579); assay: as above; type: biochemical, hs
hsMetAP-II, sequence (P50579 whole entry): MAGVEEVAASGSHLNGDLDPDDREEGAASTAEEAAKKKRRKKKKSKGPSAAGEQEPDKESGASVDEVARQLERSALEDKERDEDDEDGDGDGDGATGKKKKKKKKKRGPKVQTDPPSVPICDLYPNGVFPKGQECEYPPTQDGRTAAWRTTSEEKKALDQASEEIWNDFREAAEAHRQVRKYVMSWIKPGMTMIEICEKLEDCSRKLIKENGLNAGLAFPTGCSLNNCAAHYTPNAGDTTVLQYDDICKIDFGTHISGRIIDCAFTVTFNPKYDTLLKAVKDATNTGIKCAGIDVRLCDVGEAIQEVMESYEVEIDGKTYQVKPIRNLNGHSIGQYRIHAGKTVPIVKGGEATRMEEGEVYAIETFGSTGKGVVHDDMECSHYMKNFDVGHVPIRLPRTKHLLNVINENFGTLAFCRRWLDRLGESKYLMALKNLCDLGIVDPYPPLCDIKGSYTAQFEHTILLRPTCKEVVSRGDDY
Method: as §1
Inhibition activity of compounds was studied using the tetrapeptide substrate Met-Gly-Met-Met (Bachem) followed by HPLC analysis of the product Gly-Met-Met. The assay was performed in 96 well plates (Greiner) at a total reaction volume of 100 µl. […] Then the substrate Met-Gly-Met-Met was added to a final concentration of 400 µM. After an incubation period of 15 minutes (HsMetAP-I), 20 minutes (EcMetAP) or 60 minutes (HsMetAP-II) at 37 °C, the enzyme reaction was stopped by adding 10 µl 4 % trifluoroacetic acid. The plate was centrifuged at 1000 x g for 10 minutes.
as §3, §4

[1] = tested on: human umbilical vein endothelial cells (HUVEC); assay: HUVEC growth arrest, crystal violet staining; type: cell-based; details: Homo sapiens, HUVEC, 240 h, growth over 10 days, 0-100 µM, OD at 595 nm; read-out: HUVEC IC50
Description: For the measurement of the HUVEC growth arrest (Example 19) and the used materials and equipment were:
• Cells: Primary human umbilical vein cells (HUVEC) were obtained from GIBCO (Cat. C-015-5C). • Cell culture medium: Medium 200 supplemented with LSGS (Gibco, Cat. M-200-500). • Trypsin/EDTA (Gibco, Cat R-001-100) • Trypsin Neutralizer solution (Gibco, Cat R-002-100). • Crystal violet (Merck / Cat. no. 1408) • Ethanol (Riedel-de-Haen / Cat. no. 32205) • Acetic acid (Riedel-de-Haen / Cat. no. 33209) • Culture flasks: Coming, 430168 • 96 well plates: Greiner, 655 101
• Microtiter pipettes: •Brand Transferpette-8, • Gilson Pipetman 20 and 200 Laminar air flow cabinet: Gelman, Celaire • ELISA reader: Thermo, Multiskan Ascent • Microscope: Leitz Diavert • Balance: Sartorius RC 210 D • CO2 incubator: Heraeus CO2-Auto-Zero • Centrifuge: Heraeus Biofuge primo • Cell counter: Assistent, Neubauer hematocytometer
Crystal violet solution: • Crystal violet (Merck) was dissolved in ethanol (PA quality, Roth) to a concentration of 10 %. The solution was diluted with ddH2O 1:20.
Test compounds: • Compounds of the present invention were dissolved at a concentration of 10 mM in DMSO (Roth, Cat. 47201). Stock solutions of test compounds were diluted 1:10 not earlier than 1 hour before the assay was made.
• 1. HUVEC cells were seeded in 96-well plates ([…]). • 2. 6 hours later test compounds were added in triplicates Concentrations of test compound: 0, 1.6, 3.2, 6.3, 12.5, 25, 50, 100 µM. Fresh medium and test compounds were added every 48 hr. • 3. One 96 well plate (t=0) with untreated cells was fixed at the same time point as treatment of cells with test compounds was initiated. • 4. Test plates were incubated for 10 days in a CO2 incubator. • 5. Fixation of cells: Wells were washed with 100 µL/well PBS. PBS was decanted and 100 µL of 3 % formaldehyde/well was added. After 5 min, formaldehyde was decanted and plates were dried upside down on blotting paper overnight at room temperature. • 6. Staining: 0.1 mL of crystal violet solution was added to each well with a 12-channel pipette. After incubation for 5 min at room temperature, the crystal violet solution was decanted and plates were washed 5 x by submersion in 3 L fresh water. • 7. After drying (plates were dried on blotting paper upside down overnight) 0.1 mL of ethanol/acetic acid (99:1) was added to each well and the optical density at 595 nm was determined in an ELISA reader.
The evaluation of the growth inhibitory activity was carried out as follows: • Definitions: Growth: Mean OD at t=10 d - mean OD at t=0. • Evaluation: Dose response curves were established by plotting growth against concentration of compounds using Microsoft Excel.

[2] = single concentration: inhibitor 25 µM, enzyme 50 nM, 15 minutes substrate incubation at 37 °C
[3] = single concentration: inhibitor 25 µM, enzyme 50 nM, 60 minutes substrate incubation at 37 °C
[4] = read-out: hsMetAP-II % inhibition, single concentration: inhibitor 25 µM, enzyme 50 nM, 60 minutes substrate incubation at 37 °C
[5] = enzyme 50 nM, 400 µM Met-Gly-Met-Met, 60 minutes at 37 °C, read-out: hsMetAP-II IC50
[6] = single concentration: inhibitor 25 µM, enzyme 50 nM, 60 minutes substrate incubation at 37 °C, read-out: hsMetAP-II % inhibition

Row | Compound | inhibition at 25 µM (E. coli MetAP) [%] | E. Coli % inhibition (E. coli MetAP) | hsMetAP-I % inhibition (hsMetAP-I; [2]) | inhibition at 25 µM (hsMetAP-II; [6]) [%] | also measured
1 | Cn1nnc2c1C1(CCC2=O)CO1 (racemic) [CJ-II-011] | 20 ± 2 | – | – | – | inhibition at 25 µM (hsMetAP-I; [2]): 14 ± 7%; hsMetAP-II % inhibition (hsMetAP-II; [3]): Inactive
2 | CCCn1cnc2c1C1(CCC2=O)CO1 (racemic) [JL-II-116-A] | – | Inactive | Inactive | – | hsMetAP-II % inhibition (hsMetAP-II; [3]): Inactive
3 | Cn1cnc2c1C1(CCC2=O)CO1 (racemic) [JL-II-136-A] | – | Inactive | Inactive | – | hsMetAP-II % inhibition (hsMetAP-II; [3]): Inactive
4 | O=C(O[C@@H]1CC[C@]2(CO2)c2c1nnn2Cc1ccc2ccccc2c1)c1ccccc1 (racemic) [JL-III-132-C] | 22 ± 7 | – | Inactive | – | IC50 (hsMetAP-II): 3.7 ± 0.3 µM; inhibition at 25 µM (hsMetAP-II; [4]): 63 ± 5%
5 | O=C(O[C@@H]1CC[C@]2(CO2)c2c1nnn2Cc1ccccc1)c1ccccc1 (racemic) [JL-III-147-A] | 45 ± 7 | – | – | – | inhibition at 25 µM (hsMetAP-I): 15 ± 1%; IC50 (hsMetAP-II): 1.3 ± 0.01 µM; inhibition at 25 µM (hsMetAP-II; [4]): 93.3 ± 2.1%
6 | O=C(O[C@@H]1CC[C@@]2(CO2)c2c1nnn2Cc1ccccc1)c1ccccc1 (racemic) [JL-III-147-B] | 36 ± 11 | – | Inactive | – | IC50 (hsMetAP-II): 19.1 ± 9 µM; inhibition at 25 µM (hsMetAP-II; [4]): 59 ± 2%
7 | COc1ccc(Cn2nnc3c2[C@@]2(CC[C@H]3OC(=O)/C=C/c3cc(OC)c(OC)c(OC)c3)CO2)cc1 (racemic) [UWU-II-035-C] | – | Inactive | Inactive | – | IC50 (hsMetAP-II): 2.02 ± 0.03 µM; inhibition at 25 µM (hsMetAP-II; [4]): 85 ± 11%
8 | COc1ccc(Cn2nnc3c2C2(CCC3OC(=O)C=Cc3cc(OC)c(OC)c(OC)c3)CO2)cc1 (racemic) [UWU-XII-035-A] | – | Inactive | Inactive | – | inhibitory effect on MetAP-II (in words) (hsMetAP-II): good inhibitory effect; inhibition at 25 µM (hsMetAP-II; [4]): 94 ± 4%; IC50 (hsMetAP-II; read-out: hsMetAP-II IC50, enzyme 50 nM, 400 µM Met-Gly-Met-Met, 60 minutes at 37 °C): 0.5 ± 1 µM
9 | CC(C)c1ccc(Cn2nnc3c2[C@]2(CC[C@H]3OC(=O)c3ccccc3)CO2)cc1 (racemic) [UWU-XII-036-A] | 20 ± 8 | – | Inactive | – | IC50 (hsMetAP-II): 4.7 ± 0.3 µM; inhibition at 25 µM (hsMetAP-II; [4]): 59 ± 5%
10 | COc1ccc(Cn2nnc3c2[C@]2(CC[C@H]3OC(=O)NC(C)C)CO2)cc1 (racemic) [UWU-XII-131-A] | – | Inactive | Inactive | – | IC50 [1]: 0.4 µM
11 | COc1ccc(Cn2nnc3c2[C@@]2(CC[C@H]3OC(=O)NC(C)C)CO2)cc1 (racemic) [UWU-XII-131-C] | – | Inactive | Inactive | – | IC50 [1]: 2.5 µM
12 | Cc1ccccc1Cn1nnc2c1C1(CCC2=O)CO1 (centres unmarked) [BK-I-181-B] | – | Inactive | Inactive | 100 | IC50 (hsMetAP-II; [5]): 5.1 ± 2.9 µM
13 | CCn1nnc2c1C1(CCC2=O)CO1 (centres unmarked) [CJ-II-007] | 22 ± 5 | – | Inactive | – | hsMetAP-II % inhibition (hsMetAP-II; [3]): Inactive
14 | CCCCCCCCn1nnc2c1C1(CCC2=O)CO1 (centres unmarked) [CJ-II-010] | 14 ± 7 | – | – | 50 ± 2 | inhibition at 25 µM (hsMetAP-I; [2]): 12.1 ± 1.5%
15 | O=C1CCC2(CO2)c2c1nnn2Cc1ccc2ccccc2c1 (centres unmarked) [HHS-I-020-C] | 24 ± 8 | – | Inactive | 84.1 ± 3.2 | IC50 (hsMetAP-II; [5]): 2.7 ± 0.1 µM
16 | O=C1CCC2(CO2)c2c1nnn2Cc1ccccc1 (centres unmarked) [HHS-I-027-B] | – | Inactive | Inactive | 64.5 ± 0.1 | IC50 (hsMetAP-II; [5]): 13.7 ± 3.4 µM
17 | CC(C)CCn1cnc2c1C1(CCC2=O)CO1 (centres unmarked) [JL-II-115-A] | 25 ± 8 | – | Inactive | – | hsMetAP-II % inhibition (hsMetAP-II; [3]): Inactive
18 | CC(C)Cn1cnc2c1C1(CCC2=O)CO1 (centres unmarked) [JL-II-120-B] | – | Inactive | Inactive | 12 ± 6 | –
19 | CCn1cnc2c1C1(CCC2=O)CO1 (centres unmarked) [JL-II-137-A] | – | Inactive | Inactive | – | hsMetAP-II % inhibition (hsMetAP-II; [3]): Inactive
20 | O=C1CCC2(CO2)c2c1ncn2Cc1ccccc1 (centres unmarked) [JL-III-084-C] | – | Inactive | Inactive | 24 ± 1 | –
21 | O=C(O[C@@H]1CC[C@@]2(CO2)c2c1nnn2Cc1ccc2ccccc2c1)c1ccccc1 [JL-III-132-D] | – | Inactive | Inactive | 15 ± 5 | –
22 | CC(C)c1ccc(Cn2nnc3c2C2(CCC3=O)CO2)cc1 (centres unmarked) [JL-III-138-A] | 50 ± 6 | – | – | 84 ± 3 | inhibition at 25 µM (hsMetAP-I; [2]): 16 ± 2%; IC50 (hsMetAP-II; [5]): 5.5 ± 3 µM
